In ChEMBL document CHEMBL5625210, “5-Cyano substituted diarylpyridines as potent HIV-1 NNRTIs: Rational design, synthesis, and activity evaluation” (Eur J Med Chem, 2023):

What was measured:
[1] = system: Human immunodeficiency virus 1; test: Antiviral activity against HIV-1 Y188L mutant infected in human MT4 cells assessed as protection against virus-induced cytopathic effect incubated for 5 days by MTT assay; type: functional, organism-based; details: Human immunodeficiency virus 1, MT4, 120 h
[2] = Cytotoxicity against human MT4 cells assessed as reduction in cell viability incubated for 5 days by MTT assay; type: toxicity, cell-based; details: time 5 day
[3] = system: Human immunodeficiency virus 2; test: Antiviral activity against wild type HIV-2 ROD infected in human MT4 cells assessed as protection against virus-induced cytopathic effect incubated for 5 days by MTT assay; type: functional, organism-based; details: Human immunodeficiency virus 2, ROD, MT4, 120 h
in vitro = details: human, MT4 cells
Description: Selectivity index, ratio of CC50 for cytotoxicity against human MT4 cells to EC50 for antiviral activity against wild type HIV-1 IIIB infected in human MT4 cells

[4] = system: Human immunodeficiency virus 1; test: Antiviral activity against wild type HIV-1 IIIB infected in human MT4 cells assessed as protection against virus-induced cytopathic effect incubated for 5 days by MTT assay; type: functional, organism-based; details: Human immunodeficiency virus 1, IIIB, MT4, 120 h
[5] = system: Human immunodeficiency virus 1; test: Antiviral activity against HIV-1 F227L/V106A mutant infected in human MT4 cells assessed as protection against virus-induced cytopathic effect incubated for 5 days by MTT assay; type: functional, organism-based; details: Human immunodeficiency virus 1, MT4, 120 h
[6] = system: Human immunodeficiency virus 1; test: Antiviral activity against HIV-1 […] mutant infected in human MT4 cells assessed as protection against virus-induced cytopathic effect incubated for 5 days by MTT assay; type: functional, organism-based; details: Human immunodeficiency virus 1, MT4, 120 h
[7] = system: Human immunodeficiency virus 1; test: Antiviral activity against HIV-1 Y181C mutant infected in human MT4 cells assessed as protection against virus-induced cytopathic effect incubated for 5 days by MTT assay; type: functional, organism-based; details: Human immunodeficiency virus 1, MT4, 120 h
[8] = system: Human immunodeficiency virus 1; test: Antiviral activity against HIV-1 K103N mutant infected in human MT4 cells assessed as protection against virus-induced cytopathic effect incubated for 5 days by MTT assay; type: functional, organism-based; details: Human immunodeficiency virus 1, MT4, 120 h
[9] = system: Human immunodeficiency virus 1; test: Antiviral activity against HIV-1 E138K mutant infected in human MT4 cells assessed as protection against virus-induced cytopathic effect incubated for 5 days by MTT assay; type: functional, organism-based; details: Human immunodeficiency virus 1, MT4, 120 h
[10] = system: Human immunodeficiency virus 1; test: microbe, parasite or virus in culture; details: Human immunodeficiency virus 1, MT4, 120 h
Description: Antiviral activity against HIV-1 RES056 mutant infected in human MT4 cells assessed as protection against virus-induced cytopathic effect incubated for 5 days by MTT assay

[11] = biological target: Human immunodeficiency virus type 1 reverse transcriptase (Human immunodeficiency virus 1, UniProt Q72547); test: Inhibition of wild type HIV-1 reverse transcriptase assessed as inhibition of biotin-dUTP incorporation using ABTS as substrate incubated for 1 hrs by ELISA analysis

Compound | EC50 [1] | CC50 at 120 h [2] | EC50 [3] | selectivity ratio (in vitro) | EC50 [4] | EC50 [5] | EC50 [6] | EC50 [7] | EC50 [8] | EC50 [9] | EC50 [10] | IC50 [11]
Cc1cn([C@@H]2C[C@@H](N=[N+]=[N-])[C@H](CO)O2)c(=O)[nH]c1=O | 21 nM | > 7480 nM | 0.036 nM | > 250 | 30 nM | 37.8 nM | 10.5 nM | 22.1 nM | 29.6 nM | 23.6 nM | 28.8 nM | 
Cc1cc(C#N)cc(C)c1Oc1nc(NC2CCN(Cc3ccc(S(C)(=O)=O)cc3)CC2)c(C#N)cc1Cl |  | > 227000 nM | > 227 nM | > 10400 | 21.8 nM |  |  |  |  |  |  | 449 nM
Cc1cc(C#N)cc(C)c1Oc1ccc(C#N)c(Nc2ccc(C#N)c(C#N)c2)n1 |  | > 320000 nM | > 320 nM | > 2780 | 115 nM |  |  |  |  |  |  | 697 nM
Cc1cc(C#N)cc(C)c1Oc1nc(Nc2ccc(C#N)cc2)c(C#N)cc1Cl |  | 240000 nM | > 240 nM | 8340 | 28.7 nM |  |  |  |  |  |  | 153 nM
Cc1cc(C#N)cc(C)c1Oc1nc(NC2CCN(Cc3ccc(S(N)(=O)=O)cc3)CC2)c(C#N)cc1Cl |  | 22600 nM | > 22.6 nM | 691 | 32.7 nM |  |  |  |  |  |  | 466 nM
Cc1cc(C#N)cc(C)c1Oc1nc(Nc2ccc(C#N)c(F)c2)c(C#N)cc1F | 16700 nM | 218000 nM | > 218 nM | 20900 | 10.4 nM | 710 nM | 316 nM | 1930 nM | 540 nM | 141 nM | > 218000 nM | 143 nM
Cc1cc(C#N)cc(C)c1Oc1nc(Nc2ccc(C#N)c(C#N)c2)c(C#N)cc1Cl | > 202000 nM | 202000 nM | > 202 nM | 14300 | 14.1 nM | 2250 nM | 313 nM | 1120 nM | 233 nM | 287 nM | > 202000 nM | 144 nM
Cc1cc(C#N)cc(C)c1Oc1ccc(C#N)c(Nc2ccc(C#N)cc2)n1 | ≥ 33000 nM | > 65200 nM | > 326 nM | > 8330 | 7.82 nM | 10900 nM | 123 nM | 1540 nM | 446 nM | 54.8 nM | > 65200 nM | 94 nM
Cc1cc(C#N)cc(C)c1Oc1nc(NC2CCN(Cc3ccc(S(N)(=O)=O)cc3)CC2)c(C#N)cc1F | 157 nM | 25200 nM | > 25.2 nM | 2250 | 11.2 nM | 234 nM | 43 nM | 44.9 nM | 16.8 nM | 52.4 nM | 260 nM | 292 nM
Cc1cc(C#N)cc(C)c1Oc1ccc(C#N)c(NC2CCN(Cc3ccc(S(N)(=O)=O)cc3)CC2)n1 | 114 nM | 21800 nM | > 21.8 nM | 5630 | 3.87 nM | 194 nM | 73.6 nM | 36.8 nM | 19.4 nM | 19.4 nM | 2780 nM | 205 nM
Cc1cc(C#N)cc(C)c1Oc1ccc(C#N)c(Nc2ccc(CN3CCN(S(=O)(=O)N(C)C)CC3)cc2)n1 |  | 5170 nM | > 5.17 nM | 26 | 197 nM |  |  |  |  |  |  | 1550 nM
Cc1cc(C#N)cc(C)c1Oc1nc(Nc2ccc(C#N)cc2)c(C#N)cc1F | > 62300 nM | > 62300 nM | > 311 nM | > 8330 | 7.47 nM | ≥ 17400 nM | 1140 nM | 22400 nM | 2040 nM | 341 nM | > 62300 nM | 112 nM
Cc1cc(C#N)cc(C)c1Oc1nc(Nc2ccc(C#N)c(F)c2)c(C#N)cc1Cl |  | 282000 nM | > 282 nM | 11300 | 25 nM |  |  |  |  |  |  | 98 nM
Cc1cc(C#N)cc(C)c1Oc1nc(Nc2ccc(CN3CCN(S(=O)(=O)N(C)C)CC3)cc2)c(C#N)cc1Cl |  | 178000 nM | > 178 nM | 2580 | 69 nM |  |  |  |  |  |  | 686 nM
Cc1cc(C#N)cc(C)c1Oc1nc(Nc2ccc(CN3CCN(S(C)(=O)=O)CC3)cc2)c(C#N)cc1F |  | 213000 nM | > 213 nM | 4740 | 44.9 nM |  |  |  |  |  |  | 294 nM
Cc1cc(C#N)cc(C)c1Oc1nc(Nc2ccc(CN3CCN(S(=O)(=O)N(C)C)CC3)cc2)c(C#N)cc1F |  | 149000 nM | > 149 nM | 744 | 200 nM |  |  |  |  |  |  | 2600 nM
Cc1cc(C#N)cc(C)c1Oc1nc(NC2CCN(Cc3ccc(S(C)(=O)=O)cc3)CC2)c(C#N)cc1F | 73.1 nM | 27500 nM | > 27 nM | 4890 | 5.62 nM | 67.5 nM | 22.5 nM | 28.1 nM | 9.37 nM | 18.7 nM | 171 nM | 341 nM
Cc1cc(C#N)cc(C)c1Oc1nc(Nc2ccc(CN3CCN(S(C)(=O)=O)CC3)cc2)c(C#N)cc1Cl | 2960 nM | 208000 nM | > 208 nM | 14300 | 14.5 nM | 276 nM | 238 nM | 555 nM | 633 nM | 131 nM | > 208000 nM | 392 nM
Cc1cc(C#N)cc(C)c1Oc1ccc(C#N)c(NC2CCN(Cc3ccc(C(N)=O)cc3)CC2)n1 | 348 nM | 28600 nM | > 28.6 nM | 3440 | 8.32 nM | 1020 nM | 318 nM | 110 nM | 110 nM | 50 nM | 4250 nM | 256 nM
Cc1cc(C#N)cc(C)c1Oc1ccc(C#N)c(NC2CCN(Cc3ccc(S(C)(=O)=O)cc3)CC2)n1 | 244 nM | 19100 nM | > 19.1 nM | 3290 | 5.82 nM | 182 nM | 136 nM | 38.8 nM | 34.9 nM | 211 nM | 7180 nM | 429 nM
Cc1cc(C#N)cc(C)c1Oc1ccc(C#N)c(Nc2ccc(CN3CCN(S(C)(=O)=O)CC3)cc2)n1 |  | 18000 nM | > 18 nM | 444 | 40.7 nM |  |  |  |  |  |  | 277 nM
Cc1cc(C#N)cc(C)c1Oc1ccc(C#N)c(Nc2ccc(C#N)c(F)c2)n1 |  | 27300 nM | > 27.3 nM | 19 | 1460 nM |  |  |  |  |  |  | 12000 nM
Cc1cc(C#N)cc(C)c1Oc1nc(NC2CCN(Cc3ccc(C(N)=O)cc3)CC2)c(C#N)cc1F | 227 nM | 24100 nM | > 24.5 nM | 4010 | 6.02 nM | 347 nM | 100 nM | 84.2 nM | 44.1 nM | 26.1 nM | 3590 nM | 303 nM
Cc1cc(C#N)cc(C)c1Oc1nc(NC2CCN(Cc3ccc(C(N)=O)cc3)CC2)c(C#N)cc1Cl | 221 nM | 154000 nM | > 154 nM | 26500 | 5.83 nM | 357 nM | 66 nM | 40.8 nM | 31.1 nM | 33 nM | 2440 nM | 402 nM
Cc1cc(C#N)cc(C)c1Oc1nc(Nc2ccc(C#N)c(C#N)c2)c(C#N)cc1F |  | > 306000 nM | > 306 nM | > 11400 | 26.9 nM |  |  |  |  |  |  | 230 nM
O=C1Nc2ccc(Cl)cc2[C@@](C#CC2CC2)(C(F)(F)F)O1 [EFAVIRENZ] | 355 nM | > 6340 nM |  |  | 2.53 nM | 890 nM | 31.8 nM | 6.34 nM | 114 nM | 6.34 nM |  | 
Cc1cc(C#N)cc(C)c1Oc1nc(Nc2ccc(C#N)cc2)nc(N)c1Br [ETRAVIRINE] | 18.4 nM | > 4600 nM |  |  |  |  | 4.6 nM | 8.96 nM | 3.45 nM | 4.82 nM | 20.2 nM | 
Cc1ccnc2c1NC(=O)c1cccnc1N2C1CC1 [NEVIRAPINE] | > 9510 nM | > 9510 nM | > 9.51 nM |  |  | > 9510 nM | 1990 nM | 4210 nM |  | 76.1 nM | > 9510 nM | 
